Reference: US5688787A, “Substituted β-lactam compounds useful as hypochlesterolemic agents and processes for the preparation thereof” (priority 1996, dated 1997)
Read-outs that look alike come from different tables or passages of the source.

System: Hyperlipidemic Hamster
Experiment: In Vivo Assay of Hypolipidemic Agents Using the Hyperlipidemic Hamster
Settings: Mesocricetus auratus, po, 168 h, 7 days, percent change versus control, negative = lowering; for change in vivo at 50 mg/kg: 50 mg/kg once daily oral; for change in vivo at 3 mg/kg: 3 mg/kg once daily oral; for change in vivo at 10 mg/kg: 10 mg/kg once daily oral
Description: In Vivo Assay of Hypolipidemic Agents Using the Hyperlipidemic Hamster
Hamsters are separated into groups of six and given a controlled cholesterol diet (Purina Chow #5001 containing 0.5% cholesterol) for seven days. Diet consumption is monitored to determine dietary cholesterol exposure in the face of test compounds. The animals are dosed with the test compound once daily beginning with the initiation of diet. Dosing is by oral gavage of 0.2mL of corn oil alone (control group) or solution (or suspension) of test compound in corn oil. All animals roodbund or in poor physical condition are euthanized. After seven days, the animals are anesthetized by IM injection of ketamine and sacrificed by decapitation. Blood is collected into vacutainer tubes containing EDTA for plasma lipid analysis and the liver excised for tissue lipid analysis. Data is reported as percent reduction of lipid versus control.
Using the test procedures described above, the following in vitro and in vivo data were obtained for the preferred compounds, which are referred to in the following table by the corresponding example numbers. For the in vitro ACAT data, negative percent inhibition denotes apparent stimulation,while positive numbers denote inhibition. For the in vivo results, data is reported as percent change versus control, therefore, negative numbers indicate a positive lipid-lowering effect.

[1] = read-out: % Reduction (in vivo) Cholest. Esters
[2] = read-out: % Reduction (in vivo) Serum Cholest.

COc1ccc([C@@H]2[C@@H](CCCc3ccccc3)C(=O)N2c2ccc(I)cc2)cc1 (relative stereo) [Example 7AA]
change in vivo at 50 mg/kg [1]: -42% | change in vivo at 50 mg/kg [2]: -10%

CCCCCCCCCC[C@H]1C(=O)N(c2ccc(OC)cc2)[C@@H]1c1ccc(OC)cc1 (relative stereo) [Example 7AG]
change in vivo at 50 mg/kg [1]: -15% | change in vivo at 50 mg/kg [2]: 0%

COc1ccc([C@@H]2[C@@H](/C=C\Cc3ccccc3)C(=O)N2c2ccc(OC)cc2)cc1 (relative stereo) [Example 7AI]
change in vivo at 3 mg/kg [1]: -46% | change in vivo at 3 mg/kg [2]: -11% | change in vivo at 10 mg/kg [1]: -73% | change in vivo at 10 mg/kg [2]: -20% | change in vivo at 50 mg/kg [1]: -95% | change in vivo at 50 mg/kg [2]: -63%

COc1ccc([C@@H]2[C@@H](/C=C/Cc3ccccc3)C(=O)N2c2ccc(OC)cc2)cc1 (relative stereo) [Example 7AJ]
change in vivo at 50 mg/kg [1]: -18% | change in vivo at 50 mg/kg [2]: 0%

COc1ccc([C@@H]2[C@@H](CCCC3CCCCC3)C(=O)N2c2ccc(OC)cc2)cc1 (relative stereo) [Example 7AK]
change in vivo at 50 mg/kg [1]: -28% | change in vivo at 50 mg/kg [2]: 12%

COc1ccc([C@@H]2[C@H](Oc3ccc4ccccc4c3)C(=O)N2c2ccc(OC)cc2)cc1 (relative stereo) [Example 7AL]
change in vivo at 50 mg/kg [1]: 0% | change in vivo at 50 mg/kg [2]: -13%

COc1ccc([C@@H]2[C@@H](CCCCCc3ccccc3)C(=O)N2c2ccc(OC)cc2)cc1 (relative stereo) [Example 7AM]
change in vivo at 50 mg/kg [1]: -70% | change in vivo at 50 mg/kg [2]: -24%

COc1ccc([C@@H]2[C@@H](CCOc3ccc([N+](=O)[O-])cc3)C(=O)N2c2ccccc2)cc1 (relative stereo) [Example 7AN]
change in vivo at 50 mg/kg [1]: -42% | change in vivo at 50 mg/kg [2]: -12%

COc1ccc([C@@H]2[C@@H](Cc3ccc4ccccc4c3)C(=O)N2c2ccccc2)cc1 (relative stereo) [Example 7AO]
change in vivo at 50 mg/kg [1]: -90% | change in vivo at 50 mg/kg [2]: -41%

COc1ccc(OCC[C@H]2C(=O)N(c3ccccc3)[C@@H]2c2ccc(OC)cc2)cc1 (relative stereo) [Example 7AP]
change in vivo at 50 mg/kg [1]: -82% | change in vivo at 50 mg/kg [2]: -24%

COc1ccc([C@@H]2[C@H](Cc3ccc4ccccc4c3)C(=O)N2c2ccccc2)cc1 (relative stereo) [Example 7AQ]
change in vivo at 50 mg/kg [1]: -91% | change in vivo at 50 mg/kg [2]: -52%

COc1ccc([C@@H]2[C@@H](CCCc3ccccc3)C(=O)N2c2ccc3c(c2)CCC3)cc1 (relative stereo) [Example 7AR]
change in vivo at 50 mg/kg [1]: -88% | change in vivo at 50 mg/kg [2]: -32%

COc1ccc([C@@H]2[C@@H](CCCc3ccccc3)C(=O)N2c2cccc3c2CCCC3)cc1 (relative stereo) [Example 7AS]
change in vivo at 50 mg/kg [1]: -20% | change in vivo at 50 mg/kg [2]: 0%

COc1ccc([C@@H]2[C@@H](CCCc3ccccc3)C(=O)N2c2cnc3ccccc3c2)cc1 (relative stereo) [Example 7AT]
change in vivo at 50 mg/kg [1]: -32% | change in vivo at 50 mg/kg [2]: -10%

CCOC(=O)c1ccc(N2C(=O)[C@H](CCCc3ccccc3)[C@H]2c2ccc(OC)cc2)cc1 (relative stereo) [Example 7A]
change in vivo at 50 mg/kg [1]: -54% | change in vivo at 50 mg/kg [2]: -22%

COc1ccc([C@@H]2[C@@H](CCCc3ccccc3)C(=O)N2c2cccc([N+](=O)[O-])c2)cc1 (relative stereo) [Example 7B]
change in vivo at 50 mg/kg [1]: -45% | change in vivo at 50 mg/kg [2]: -13%

CCN(CC)c1ccc(N2C(=O)[C@H](CCCc3ccccc3)[C@H]2c2ccc(OC)cc2)cc1 (relative stereo) [Example 7C]
change in vivo at 50 mg/kg [1]: -95% | change in vivo at 50 mg/kg [2]: -51%

COc1ccc([C@@H]2[C@@H](CCCc3ccccc3)C(=O)N2c2ccc(C#N)cc2)cc1 (relative stereo) [Example 7D]
change in vivo at 50 mg/kg [1]: -74% | change in vivo at 50 mg/kg [2]: -35%

COc1ccc([C@@H]2[C@@H](CCCc3ccccc3)C(=O)N2c2cc(F)cc(F)c2)cc1 (relative stereo) [Example 7E]
change in vivo at 50 mg/kg [1]: -93% | change in vivo at 50 mg/kg [2]: -52%
